Here are results for 11 molecules from article PMC6017698 (Molecules : A Journal of Synthetic Chemistry and Natural …, 2018).

Broadly, the Papp is the rate of passage across a membrane or cell layer, normalised by area and donor concentration. Low values mean poor permeation, high ones ready permeation. As a reminder, the IC50 is the concentration that inhibits the measured activity by half.

Read-outs that look alike come from different tables or passages of the source.

The conditions of data set [1]: for PAMPA-BBB prediction of BBB permeation: class from Pe value.
Procedure: (§1) The brain permeability (Pe) of the target compounds was determined in vitro using the parallel artificial membrane permeation assay for blood-brain barrier penetration described by Di et al. [41], employing a lipid extract of porcine brain membrane in a mixture of PBS/EtOH 70:30.
Another data set is described as follows: in vitro. Conditions: PAMPA. On the technique in general: The PAMPA barrier holds no transporters, so it reflects passive diffusion.
For another data set, the target named is T1, human recombinant AChE (Homo sapiens, UniProt P22303).
T1 construct: purchased Sigma, Milan, Italy
T1 sequence (P22303 32-614): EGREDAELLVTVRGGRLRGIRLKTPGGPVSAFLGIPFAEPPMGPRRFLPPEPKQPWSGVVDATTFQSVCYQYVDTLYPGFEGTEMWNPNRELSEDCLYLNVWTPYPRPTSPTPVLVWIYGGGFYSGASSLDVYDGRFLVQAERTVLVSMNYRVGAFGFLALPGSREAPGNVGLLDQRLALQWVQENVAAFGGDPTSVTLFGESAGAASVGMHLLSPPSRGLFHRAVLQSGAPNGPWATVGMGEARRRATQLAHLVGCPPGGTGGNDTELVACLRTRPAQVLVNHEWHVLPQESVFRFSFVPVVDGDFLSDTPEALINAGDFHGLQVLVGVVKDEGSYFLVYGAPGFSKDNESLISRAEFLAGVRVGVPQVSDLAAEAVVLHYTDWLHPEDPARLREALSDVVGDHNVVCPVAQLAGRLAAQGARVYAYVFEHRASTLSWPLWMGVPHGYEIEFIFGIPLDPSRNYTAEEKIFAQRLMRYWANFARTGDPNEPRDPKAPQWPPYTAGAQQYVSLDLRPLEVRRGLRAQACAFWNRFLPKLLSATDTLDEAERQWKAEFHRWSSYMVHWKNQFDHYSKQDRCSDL
Kind of data set: biochemical. In kind it is biochemical. As to conditions: for IC50: human recombinant AChE; for selectivity for hAChE over hBChE inhibition: ratio of hBChE and hAChE IC50; for fold more potent hAChE inhibitor than pyridostigmine: relative to pyridostigmine.

The target of a further data set is human serum BChE (Homo sapiens, UniProt P06276). Kind of data set: biochemical.
human serum BChE, sequence (P06276 29-602): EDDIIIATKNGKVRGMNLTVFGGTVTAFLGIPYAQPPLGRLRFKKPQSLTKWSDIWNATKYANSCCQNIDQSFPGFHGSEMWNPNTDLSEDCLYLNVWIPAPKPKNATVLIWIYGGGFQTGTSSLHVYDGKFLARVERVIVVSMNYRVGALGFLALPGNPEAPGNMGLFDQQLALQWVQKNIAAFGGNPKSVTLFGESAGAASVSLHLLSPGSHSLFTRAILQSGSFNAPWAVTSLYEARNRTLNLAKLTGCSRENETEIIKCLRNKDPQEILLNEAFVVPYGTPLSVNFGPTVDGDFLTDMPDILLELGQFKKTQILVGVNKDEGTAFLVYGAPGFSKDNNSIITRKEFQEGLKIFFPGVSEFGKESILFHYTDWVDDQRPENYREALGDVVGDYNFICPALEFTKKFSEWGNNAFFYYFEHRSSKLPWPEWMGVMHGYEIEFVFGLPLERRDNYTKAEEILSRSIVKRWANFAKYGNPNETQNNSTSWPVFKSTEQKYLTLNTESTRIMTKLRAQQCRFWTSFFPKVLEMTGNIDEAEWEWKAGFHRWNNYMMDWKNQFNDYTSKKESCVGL
The conditions of data set [2]: commercial drugs used for assay validation; cited from earlier work.
The mark [3] stands for this setting: mean ± SEM of at least three experiments, each in duplicate, read-out: hAChE IC50.
The mark [4] stands for this setting: mean ± SEM of at least three experiments, each in duplicate, read-out: hBChE IC50.

Procedure for in vitro: as §1

`Nc1c2c(nc3cc(Cl)ccc13)CCCC2` [6-chlorotacrine, reference compound]: in data set [1], the “PAMPA-BBB prediction of BBB permeation” value is “CNS+ (High BBB permeation (CNS+) is expected for compounds with Pe > 5.19)”. The molecule also came in with a Papp in the data set “in vitro” (pig) of 19.8 ± 0.4 ×10⁻⁶ cm/s.
For `C[n+]1c2c(c(N)c3ccccc31)CCCC2.[I-]` [Compound 4, 9-Amino-1,2,3,4-tetrahydro-10-methylacridin-10-ium iodide], in data set [1], the “PAMPA-BBB prediction of BBB permeation” value is reported as “CNS− (low BBB permeation (CNS−) is expected for compounds with Pe < 2.07)”. The Papp in “in vitro” is 1.7 ± 1.5 ×10⁻⁶ cm/s. For the same molecule, the half-maximal inhibitory concentration (IC50) on human recombinant AChE (setting [3]) is 12000 ± 1000 nM; at human serum BChE (setting [4]) it was 2850 ± 190 nM.
For `C[n+]1c2c(c(N)c3ccc(Cl)cc31)CCCC2.[I-]` [Compound 5, 9-Amino-6-chloro-1,2,3,4-tetrahydro-10-methylacridin-10-ium iodide], in data set [1], the “PAMPA-BBB prediction of BBB permeation” value is on record as “CNS− (low BBB permeation (CNS−) is expected for compounds with Pe < 2.07)”. Moreover, the apparent permeability (Papp) in “in vitro” came to 1.2 ± 0.8 ×10⁻⁶ cm/s. For the same molecule, the IC50 at human recombinant AChE (setting [3]) stood at 2450 ± 280 nM; at human serum BChE (setting [4]), 22300 ± 1500 nM.
Regarding `CC1=CC2Cc3c(c(N)c4ccc(Cl)cc4[n+]3C)C(C1)C2.[I-]` (centres unmarked) [Compound 6, 12-Amino-3-chloro-6,7,10,11-tetrahydro-5,9-dimethyl-7,11-methanocycloocta[b]quinolin-5-ium iodide], in data set [1] (PBS/EtOH 70:30, mean of three independent experiments ± SD), the “PAMPA-BBB Pe” value is 10.90 10^−6 cm/s. Moreover, in data set [1], the “PAMPA-BBB prediction of BBB permeation” value is “CNS+ (High BBB permeation (CNS+) is expected for compounds with Pe > 5.19)”. This molecule also returned a Papp in the data set “in vitro” of 10.9 ± 1.5 ×10⁻⁶ cm/s.
On to `OCCc1cn(CCNc2c3c(nc4ccccc24)CCCC3)nn1` [Compound 9, 2-{1-[2-(1,2,3,4-Tetrahydroacridin-9-ylamino)ethyl]-1H-1,2,3-triazol-4-yl}ethanol], for which the “PAMPA-BBB prediction of BBB permeation” value in data set [1] was “CNS− (low BBB permeation (CNS−) is expected for compounds with Pe < 2.07)”. Moreover, in the data set “in vitro” (pig), the Papp amounted to 0.03 ± 0.001 ×10⁻⁶ cm/s. In addition, the IC50 was found to be 1730 ± 120 nM on human recombinant AChE (setting [3]) and 170 ± 10 nM on human serum BChE (setting [4]).
As to `OCCc1cn(CCNc2c3c(nc4cc(Cl)ccc24)CCCC3)nn1` [Compound 10, 2-{1-[2-(6-Chloro-1,2,3,4-tetrahydroacridin-9-ylamino)ethyl]-1H-1,2,3-triazol-4-yl}ethanol], the “PAMPA-BBB prediction of BBB permeation” value in data set [1] is on record as “CNS− (low BBB permeation (CNS−) is expected for compounds with Pe < 2.07)”. Also, in the data set “in vitro” (pig), the Papp was determined as 0.02 ± 0.001 ×10⁻⁶ cm/s. Further, the IC50 at human recombinant AChE (setting [3]) is 200 ± 10 nM. Besides, at human recombinant AChE, the “selectivity for hAChE over hBChE inhibition” value is given as 16 and the “fold more potent hAChE inhibitor than pyridostigmine” value is 7 fold. Moreover, at human serum BChE (setting [4]), the IC50 came to 3250 ± 170 nM.
As for `COc1cc(CNC(=O)Cc2cn(CCNc3c4c(nc5ccccc35)CCCC4)nn2)ccc1O` [Compound 15, N-[4-(hydroxy)-3-methoxybenzyl]-2-{1-[2-(1,2,3,4-tetrahydroacridin-9-ylamino)ethyl]-1H-1,2,3-triazol-4-yl}acetamide], the “PAMPA-BBB prediction of BBB permeation” value in data set [1] was “CNS− (low BBB permeation (CNS−) is expected for compounds with Pe < 2.07)”. In addition, the apparent permeability (Papp) in “in vitro” (pig) stood at 0.03 ± 0.001 ×10⁻⁶ cm/s. Also, the IC50 on human recombinant AChE (setting [3]) came to 250 ± 10 nM; at human serum BChE (setting [4]) it was 50 nM; on human serum BChE (values given in nM (table footnotes), read-out: IC50 hBChE) it was 54.8 nM.
For the molecule `COc1cc(CNC(=O)Cc2cn(CCNc3c4c(nc5cc(Cl)ccc35)CCCC4)nn2)ccc1O` [Compound 16, 2-{1-[2-(6-Chloro-1,2,3,4-tetrahydroacridin-9-ylamino)ethyl]-1H-1,2,3-triazol-4-yl}-N-[4-(hydroxy)-3-methoxybenzyl]acetamide], the “PAMPA-BBB prediction of BBB permeation” value in data set [1] is listed as “CNS±”. In “in vitro” (pig), the Papp turned out to be 2.97 ± 0.61 ×10⁻⁶ cm/s. In addition, the IC50 at human recombinant AChE (setting [3]) was 10 nM; on human recombinant AChE (values given in nM (table footnotes, text), read-out: IC50 hAChE), 7.18 nM; on human serum BChE (setting [4]), 290 ± 10 nM. Moreover, at human recombinant AChE, the “selectivity for hAChE over hBChE inhibition” value worked out at 40. In addition, on human recombinant AChE, the “fold more potent hAChE inhibitor than pyridostigmine” value is recorded as 192 fold.
On to `CCn1cc(C(=O)O)c(=O)c2cc(F)c(N3CCNCC3)cc21` [Norfloxazin, reference compound], for which the “Experimental Pe” value in data set [1] (commercial drugs used for assay validation, mean ± SD of three independent experiments) is reported as 0.9 ± 0.1 10^−6 cm s^−1.
Regarding `CN1C(C(=O)Nc2ccccn2)=C(O)c2ccccc2S1(=O)=O` [Piroxicam], the “Reported Pe” value in data set [2] was 2.5 10^−6 cm s^−1.
Turning to `CN(C)CCCN1c2ccccc2Sc2ccccc21` [Promazine], the “Reported Pe” value in data set [2] is listed as 8.8 10^−6 cm s^−1.
